{"source": "patent US9850538B2", "about": "“Methods for diagnosing and treating diabetes” (The Board of Trustees of the University of Illinois, priority 2015, dated 2017)", "key": {"elastase": {"test_system": "elastase", "experiment": "Flow cytometry of intracellular elastase in Ly6C+ and Ly6G+ spleen cells", "type": "in vivo, mice", "procedure": "It was next investigated whether there was a correlation between the numbers of inflammatory cells expressing elastase and the health status. To this end, spleen cells from diabetic mice and those treated with TSA and cured of diabetes were surface labeled with FITC labeled anti-Ly6C antibody (to stain macrophages) and anti-Ly6G antibody (to stain neutrophils). After staining, cells were fixed, permeabilized and incubated with rabbit antibody against elastase, followed by treatment with TRITC-labeled goat anti-rabbit antibody. Cells were analyzed by flow cytometry for the cell surface expression of Ly6C or Ly6G and these cells were gated and analyzed for the intracellular expression of elastase. […] Similarly, the numbers of Ly6G+ neutrophils co-expressing elastase protein were also diminished in TSA treated and cured mice. Thus, TSA treatment abrogated spontaneously occurring T1D in NOD mice, which was negatively correlated with the frequency of both Ly6C+ macrophages and Ly6G+ neutrophils that co-express elastase."}, "spleen cells [1]": {"test_system": "spleen cells", "experiment": "Flow cytometry of innate immune cell frequency in spleen", "type": "in vivo, mice", "procedure": "Insulin-producing beta cells can be destroyed by the inflammatory cells and the pro-inflammatory genes that were identified by microarray analysis and further validated by quantitative RT-PCR. Therefore, it was determined whether amelioration of T1D by TSA treatment involves alteration in the frequency of innate immune cells that are likely to express the Cela3b gene. Therefore, T1D susceptible NOD mice were injected with TSA before the clinical onset of diabetes, starting between 18 and 24 weeks of age, and spleen cells were stained with fluorochrome-labeled antibodies and analyzed by flow cytometry. The numbers of both macrophages of the CD11b+Ly6C+ phenotype and neutrophils expressing CD11b+Ly6G+ determinants, known to exert inflammatory responses and tissue damage, increased in the spleen of overtly diabetic mice when compared to prediabetic mice."}, "[2]": {"test_system": "inflammatory genes such as Cela3b, Cpb1, Pnlip and Cel", "experiment": "Quantitative real time-PCR of selected top hit genes", "type": "in vivo, mice", "excerpt": "Expression levels of selected top hit genes were verified in spleens by quantitative real time-PCR using primer sets that were validated following MIQE guidelines and RNA derived from spleens of mice that were different from those used for microarray analysis. The expression of inflammatory genes such as Cela3b (elastase 3), Cpb1 (carboxyepetidase B1), Pnlip (pancreatic lipase) and Cel (carboxyl ester lipase) was prominent in the spleens of diabetic mice. […] However, Ctrl (chymotrypsin-like) gene substantially over-expressed in the exocrine pancreas was not repressed by TSA treatment, indicating the selectivity of gene regulation by chromatin remodeling in the pancreata. In addition, the mRNA levels of Pnliprp-1 (pancreatic lipase-related protein 1), Pnlilrp-2, Ctrl, Ctrc and Cpa1 were not altered by TSA treatment."}, "NOD mice [3]": {"test_system": "NOD mice", "settings": "injection; cited from earlier work"}, "islets": {"test_system": "islets", "experiment": "Confocal imaging of inflammatory cell infiltration in pancreatic sections", "type": "in vivo", "settings": "drug-treated and cured mice", "procedure": "To visualize the effect of TSA treatment on the infiltration of inflammatory cells in the pancreas, paraffin-embedded pancreatic sections were treated with antibodies against insulin, Ly6C+ macrophages and Ly6G+ neutrophils. Sections were then imaged on a confocal microscope and the images analyzed. Both Ly6C+ macrophages and Ly6G+ neutrophils were evident in the islets of diabetic mice, as identified by co-staining with an anti-insulin antibody. In contrast, both Ly6C+ macrophages and Ly6G+ neutrophils were absent in the islets of drug-treated and cured mice. […] Treatment with TSA effectively eradicated the infiltration of inflammatory cells and thereby provides protection against T1D in the mouse model."}, "islets of Langerhans": {"test_system": "islets of Langerhans", "settings": "TSA treatment; cited from earlier work"}, "[4]": {"settings": "drug administration in mice; cited from earlier work"}, "elastase gene": {"test_system": "elastase gene", "settings": "cited from earlier work"}, "NOD mice [5]": {"test_system": "NOD mice", "experiment": "Development of T1D in genetically susceptible NOD mice", "type": "in vivo", "settings": "NOD mice injected before clinical onset, starting between 18 and 24 weeks of age"}, "spleen cells [6]": {"test_system": "spleen cells", "experiment": "Global gene expression profiling of spleen cells by microarray", "type": "in vivo, mice", "procedure": "To understand the molecular mechanisms underlying protection against T1D bestowed by TSA treatment in NOD/Ltj mice, transcriptome (gene expression profiling) of spleen cells was analyzed by global gene expression profiling using a microarray approach. To this end, total RNA was isolated from diabetic and cured mice, converted into cRNA and then hybridized to AFFYMETRIX GENECHIP Mouse Genome 430 2.0 microarrays that contain 45,000 probe sets representing 34,000 mouse genes. Three-way analysis of gene expression in untreated-non-diabetic mice, overtly diabetic mice, and those cured by TSA treatment yielded 164 differentially regulated genes, filtered by an ANOVA p-value, 0.05. These highly regulated genes were used for hierarchical clustering. Microarray data sets were deposited at Gene Expression Omnibus (accession no. GSE 26461) (Jayaraman, et al. (2013) PLoS One 8:e55074).\nPrincipal component analysis validated the up-regulation of a set of pro-inflammatory genes in uninduced spleens of overtly diabetic mice, and their repression by TSA treatment. This analysis clearly distinguished the genes that may be responsible for T1D manifestation and therefore of significant impact on the diagnosis of T1D in humans (Jayaraman, et al. (2013) PLoS One 8:e55074)."}}, "note": "Read-outs that look alike come from different tables or passages of the source.", "data": [{"smiles": "CC(/C=C/C(=O)NO)=C\\[C@@H](C)C(=O)c1ccc(N(C)C)cc1", "note": "[TSA, Trichostatin A]", "values": [{"measurement": "numbers of Ly6G+ neutrophils co-expressing elastase protein", "setting": "elastase; spleens of TSA treated and cured mice", "result": "diminished"}, {"measurement": "numbers of Ly6C+ macrophages that contained elastase in the cytoplasm", "setting": "elastase; spleens of cured versus diabetic mice", "result": "significantly lower numbers"}, {"measurement": "frequency of CD11b+F4/80+ macrophages", "setting": "spleen cells [1]; spleen, flow cytometry", "result": "did not affect the frequency"}, {"measurement": "frequency of CD11b+Ly6C+ macrophages", "setting": "spleen cells [1]; spleen, flow cytometry", "result": "reduced the frequency"}, {"measurement": "frequency of CD11b+Ly6G+ neutrophils", "setting": "spleen cells [1]; spleen, flow cytometry", "result": "reduced the frequency"}, {"measurement": "numbers of dendritic cells expressing CD11c determinant", "setting": "spleen cells [1]; spleens, versus prediabetic and diabetic mice", "result": "Essentially, the same numbers"}, {"measurement": "Ctrl (chymotrypsin-like) gene expression", "setting": "[2]; over-expressed in the exocrine pancreas, pancreata", "result": "not repressed"}, {"measurement": "mRNA level of Cpa1", "setting": "[2]; qRT-PCR", "result": "not altered"}, {"measurement": "mRNA level of Ctrc", "setting": "[2]; qRT-PCR", "result": "not altered"}, {"measurement": "mRNA level of Ctrl", "setting": "[2]; qRT-PCR", "result": "not altered"}, {"measurement": "mRNA level of Pnlilrp-2", "setting": "[2]; qRT-PCR", "result": "not altered"}, {"measurement": "mRNA level of Pnliprp-1 (pancreatic lipase-related protein 1)", "setting": "[2]; qRT-PCR", "result": "not altered"}, {"measurement": "expression level of Cel (carboxyl ester lipase)", "setting": "[2]; qRT-PCR, spleens", "result": "reduced the expression levels of these genes substantially"}, {"measurement": "expression level of Cela3b (elastase 3)", "setting": "[2]; qRT-PCR, spleens", "result": "reduced the expression levels of these genes substantially"}, {"measurement": "expression level of Cpb1 (carboxyepetidase B1)", "setting": "[2]; qRT-PCR, spleens", "result": "reduced the expression levels of these genes substantially"}, {"measurement": "expression level of Pnlip (pancreatic lipase)", "setting": "[2]; qRT-PCR, spleens", "result": "reduced the expression levels of these genes substantially"}, {"measurement": "development of T1D", "setting": "NOD mice [3]", "result": "prevents the development of T1D"}, {"measurement": "Ly6C+ macrophages in the islets", "setting": "islets", "result": "absent"}, {"measurement": "Ly6G+ neutrophils in the islets", "setting": "islets", "result": "absent"}, {"measurement": "beta cells producing insulin", "setting": "islets of Langerhans", "result": "preservation of the beta cells"}, {"measurement": "inflammation surrounding the islets of Langerhans", "setting": "islets of Langerhans", "result": "eradication of inflammation surrounding the islets of Langerhans"}, {"measurement": "side effects or gross pathological changes", "setting": "[4]", "result": "did not result in obvious side effects or gross pathological changes"}, {"measurement": "expression of the elastase gene", "setting": "elastase gene; peripheral lymphoid organ spleen", "result": "significantly lowered"}, {"measurement": "expression of the elastase gene", "setting": "elastase gene; target organ pancreas", "result": "significantly lowered"}, {"measurement": "diabetes", "setting": "NOD mice [5]", "result": "ameliorated diabetes"}, {"measurement": "set of genes (n=17) over-expressed in spleens of acutely diabetic mice", "setting": "spleen cells [6]; microarray, spleens", "result": "repressed"}, {"measurement": "expression of lipases Pnliprp1, Pnliprp2, Cel and Pnilp functionally related to Cela3b", "setting": "spleen cells [6]; regulated along with Cela3b", "result": "downregulated"}]}]}
